{"source": "PubChem BioAssay AID1259409", "about": "(Chemical Carcinogenesis Research Information System (CCRIS), 2018)", "origin": "cited, not measured here", "tested_on": "rodent chemically induced tumor inhibition, incidence and multiplicity", "test": "CCRIS tumor inhibitor studies", "settings": "for outcome: Carcinogen: SUBCUTANEOUS, Dose [Inhibitor]: 1,2-DIMETHYLHYDRAZINE, 540-73-8, Route [Inhibitor]: 0, 20 UG/ML IN DRINKING WATER 14 HR/D AT NIGHT TIME FOR 6 MO (STUDY DURATION: 6 MO), Dose [Carcinogen]: NONE"}
{"smiles": "COc1ccc2[nH]cc(CCNC(C)=O)c2c1", "values": [{"measurement": "tumour outcome (control, treated, inhibition, significance)", "setting": "Carcinogen: N,N-DIETHYLNITROSAMINE [55-18-5], Dose [Inhibitor]: 400 PPM IN DIET, BEGINNING 1 WK AFTER FINAL CARCINOGEN DOSE, FOR STUDY DURATION (STUDY DURATION: 24 WK), Route [Inhibitor]: ORAL, Species: RAT, Strain/Sex: F344/MALE, Target Tissue: Type of Lesion: LIVER: HEPATOCELLULAR ADENOMA AND CARCINOMA, Dose [Carcinogen]: 100 MG/KG BW, 1/WK FOR 3 WK, Promoter: PHENOBARBITAL [50-06-6]", "value": "24/24 (100%), 15/23 (65%), 35%, p<0.002"}, {"measurement": "tumour outcome (control, treated, inhibition, significance)", "setting": "Carcinogen: N,N-DIETHYLNITROSAMINE [55-18-5], Dose [Inhibitor]: 400 PPM IN DIET, BEGINNING 1 WK AFTER FINAL CARCINOGEN DOSE, FOR STUDY DURATION (STUDY DURATION: 24 WK), Route [Inhibitor]: ORAL, Species: RAT, Strain/Sex: F344/MALE, Target Tissue: Type of Lesion: LIVER: HEPATOCELLULAR ADENOMA, Dose [Carcinogen]: 100 MG/KG BW, 1/WK FOR 3 WK, Promoter: PHENOBARBITAL [50-06-6]", "value": "24/24 (100%), 9/23 (39%), 61%, p<0.001"}, {"measurement": "tumour outcome (control, treated, inhibition, significance)", "setting": "Carcinogen: N-METHYL-N-NITROSOUREA [684-93-5], Dose [Inhibitor]: 0, 20 MG/L IN DRINKING WATER 15 HR/D FOR 3 D BEGINNING 2 D PRIOR TO CARCINOGEN DOSE (STUDY DURATION: LIFETIME), Route [Inhibitor]: ORAL, Species: RAT, Strain/Sex: LIO/FEMALE, Target Tissue: Type of Lesion: TUMORS, Dose [Carcinogen]: 50 MG/KG BW ONCE (STUDY DURATION: LIFETIME), Promoter: NONE", "value": "12/24 (50%), 8/23 (34.8%), 30.4%, not significant"}, {"measurement": "tumour outcome (control, treated, inhibition, significance)", "setting": "Carcinogen: N-METHYL-N-NITROSOUREA [684-93-5], Dose [Inhibitor]: 8.2 MG IN 20 µL OIL CONCENTRATE BY PIPET AT THE BASE OF THE TONGUE 1X/D FOR 20 WK BEGINNING 11 D POST FIRST CARCINOGEN D, Route [Inhibitor]: ORAL, Species: RAT, Strain/Sex: SPRAGUE-DAWLEY/FEMALE, Target Tissue: Type of Lesion: MAMMARY GLAND: TUMOR, Dose [Carcinogen]: 50 MG/KG BW 1X/WK FOR 2 WK (STUDY DURATION: 22 WK), Promoter: NONE", "value": "88%, 80%, 9%, not significant"}, {"measurement": "tumour outcome (control, treated, inhibition, significance)", "setting": "Carcinogen: N-METHYL-N-NITROSOUREA [684-93-5], Dose [Inhibitor]: 20 UG/ML IN DRINKING WATER 17 HR/D FOR 20 WK BEGINNING 12 D POST FIRST CARCINOGEN DOSE (STUDY DURATION: 22 WK), Route [Inhibitor]: ORAL, Species: RAT, Strain/Sex: SPRAGUE-DAWLEY/FEMALE, Target Tissue: Type of Lesion: MAMMARY GLAND: TUMOR, Dose [Carcinogen]: 50 MG/KG BW 1X/WK FOR 2 WK (STUDY DURATION: 22 WK), Promoter: NONE", "value": "88%, 61%, 31%, not significant"}, {"measurement": "tumour outcome (control, treated, inhibition, significance)", "setting": "Carcinogen: N-METHYL-N-NITROSOUREA [684-93-5], Dose [Inhibitor]: 20 UG/ML IN DRINKING WATER, 17 HR/D BEGINNING 5 D BEFORE FIRST CARCINOGEN DOSE FOR 27 WK (STUDY DURATION: 27 WK), Route [Inhibitor]: ORAL, Species: RAT, Strain/Sex: SPRAGUE-DAWLEY/FEMALE, Target Tissue: Type of Lesion: MAMMARY GLAND: TUMOR, Dose [Carcinogen]: 50 MG/KG BW TWICE ON POSTNATAL DAYS 51 AND 58", "value": "17/18 (94%), 14/19 (73.7%), 22%, not significant"}, {"measurement": "tumour outcome (control, treated, inhibition, significance)", "setting": "Carcinogen: N-METHYL-N-NITROSOUREA, 684-93-5, Dose [Inhibitor]: 0, 4 UG/ML IN DRINKING WATER 17 HR/D STARTING BEFORE CARCINOGEN TREATMENT FOR THE DURATION OF THE STUDY (STUDY DURATION:, Route [Inhibitor]: SUBCUTANEOUSLY, Species: RAT, Strain/Sex: SPRAGUE-DAWLEY/FEMALE, Target Tissue: Type of Lesion: MAMMARY GLAND: TUMOR, Dose [Carcinogen]: 50 MG/KG BW 2/WK FOR 1 WK BW 43-54 POSTNATAL DAYS", "value": "80%, 65%, 19%, not significant"}, {"measurement": "tumour outcome (control, treated, inhibition, significance)", "setting": "Carcinogen: N-METHYL-N-NITROSOUREA, 684-93-5, Dose [Inhibitor]: 0, 20 UG/ML IN DRINKING WATER FOR 17 HR/D FOR THE DURATION OF STUDY (STUDY DURATION: 180 D), Route [Inhibitor]: ORAL, Species: RAT, Strain/Sex: SPRAGUE-DAWLEY/FEMALE, Target Tissue: Type of Lesion: MAMMARY GLAND: TUMOR, Dose [Carcinogen]: 50 MG/G BW ONCE/WK FOR 2 WK BEGINNING 12 D POST INHIBITOR TREATMENT, Promoter: NONE", "value": "16/20 (80%), 9/16 (56.3%), 30%, not significant"}, {"measurement": "tumour outcome (control, treated, inhibition, significance)", "setting": "Carcinogen: NONE USED, Dose [Inhibitor]: 0, 25 UG/MOUSE/D IN DRINKING WATER FROM DAYS 21-45 OF AGE THEN 50 UG/D FOR DURATION OF STUDY (STUDY DURATION: 12 MO), Route [Inhibitor]: ORAL, Species: MOUSE, Strain/Sex: C3H/JAX/FEMALE, Target Tissue: Type of Lesion: MAMMARY GLAND: ADENOCARCINOMA", "value": "10/16 (63%), 9/39 (23%), 63%, p<0.02"}, {"measurement": "outcome", "setting": "Species: RAT, Strain/Sex: LIO/FEMALE, Target Tissue: Type of Lesion: 7/21 (33%), 4/21 (19%), 42%, NOT SIGNIFICANT", "value": "0.4, 0.2, 50%, not significant"}, {"measurement": "outcome", "setting": "Species: RAT, Strain/Sex: LIO/FEMALE, Target Tissue: Type of Lesion: 12/21 (57%), 3/21 (4%), 93%, P<0.01", "value": "0.8, 0.1, 88%, p<0.01"}, {"measurement": "outcome", "setting": "Species: RAT, Strain/Sex: LIO/FEMALE, Target Tissue: Type of Lesion: 20/21 (95%), 12/21 (57%), 40%, P<0.01", "value": "2.8, 1.2, 57%, p<0.01"}]}
